Results taken from ChEMBL document CHEMBL1201862, “PubChem BioAssay data set” (2004).
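Cultured in 96-well plates, cells were exposed to test compound for 48 hours across five concentrations. The concentration for 50% growth inhibition is given as GI50.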 The source made the active and inactive calls. No stated cut-off is given here; in the data, active = GI50 up to about 1.1 µM and inactive = higher.

Tests used:
Assay in all cases: DTP human tumour cell line panel, 48 h
Malme-3M = tested on: Malme-3M
A549 = tested on: A549
SNB-19 = tested on: SNB-19
OVCAR-8 = tested on: OVCAR-8
A498 = tested on: A498
U-251 = tested on: U-251
MOLT-4 = tested on: MOLT-4
HOP-62 = tested on: HOP-62
SF-295 = tested on: SF-295
HT-29 = tested on: HT-29
SF-268 = tested on: SF-268
OVCAR-5 = tested on: OVCAR-5
HL-60 = tested on: HL-60
SW-620 = tested on: SW-620
NCI-H23 = tested on: NCI-H23
HOP-92 = tested on: HOP-92

Measured: GI50

COc1ccc(/C(=N/Nc2ccccc2)C(c2ccc(OC)cc2)C2OC(=O)c3ccccc32)cc1 (stereo not given)
inactive: Malme-3M > 100 µM | A549 99.3 µM | SNB-19 > 100 µM | OVCAR-8 > 100 µM | A498 > 100 µM | U-251 > 100 µM | MOLT-4 25.6 µM | HOP-62 > 100 µM | SF-295 > 100 µM | HT-29 90.6 µM | SF-268 23.3 µM

CN(C)c1ccc(/C=C(\NC(=O)c2ccccc2)c2nc3cncnc3[nH]2)cc1
inactive: Malme-3M > 100 µM | A549 > 100 µM | SNB-19 > 100 µM | OVCAR-5 > 100 µM | OVCAR-8 > 100 µM | U-251 > 100 µM | HL-60 > 100 µM | MOLT-4 > 100 µM | SW-620 > 100 µM | SF-295 > 100 µM | HT-29 > 100 µM | NCI-H23 > 100 µM | HOP-92 41.5 µM | SF-268 > 100 µM

CC(=O)Nc1c(C)ccc2c1C(=O)c1ccccc1C2=O
inactive: Malme-3M > 100 µM | A549 > 100 µM | OVCAR-5 > 100 µM | OVCAR-8 82.6 µM | A498 > 100 µM | U-251 > 100 µM | HL-60 47.2 µM | MOLT-4 > 100 µM | SW-620 > 100 µM | HOP-62 > 100 µM | SF-295 > 100 µM | HT-29 > 100 µM | HOP-92 > 100 µM | SF-268 > 100 µM

S=C1NC(c2ccccc2)=NC(Cc2ccccc2)(c2ccccc2)N1c1ccccc1 (stereo not given)
inactive: Malme-3M > 100 µM | A549 58.9 µM | SNB-19 45.4 µM | OVCAR-5 > 100 µM | OVCAR-8 41.4 µM | A498 > 100 µM | HL-60 > 100 µM | MOLT-4 > 100 µM | SW-620 > 100 µM | HOP-62 40.3 µM | SF-295 37.9 µM | HT-29 > 100 µM | NCI-H23 > 100 µM | HOP-92 > 100 µM | SF-268 > 100 µM

N=C(N)Nc1nc2cc(N)ccc2o1
inactive: Malme-3M > 100 µM | A549 > 100 µM | SNB-19 > 100 µM | OVCAR-8 > 100 µM | A498 > 100 µM | U-251 > 100 µM | HL-60 > 100 µM | MOLT-4 > 100 µM | SW-620 > 100 µM | HOP-62 > 100 µM | SF-295 > 100 µM | HT-29 > 100 µM | NCI-H23 > 100 µM | HOP-92 > 100 µM | SF-268 > 100 µM

COc1c(CC(=O)c2ccccc2)c2ccccc2n1C(C)=O
inactive: A549 > 100 µM | SNB-19 > 100 µM | OVCAR-8 91 µM | A498 > 100 µM | U-251 > 100 µM | HL-60 > 100 µM | MOLT-4 > 100 µM | SW-620 > 100 µM | HOP-62 > 100 µM | SF-295 72.9 µM | HT-29 > 100 µM | NCI-H23 58.7 µM | HOP-92 > 100 µM

O=C1C(Cl)C(c2ccc(Cl)cc2)N1n1cnc2ccccc2c1=O (stereo not given)
inactive: Malme-3M > 100 µM | A549 > 100 µM | SNB-19 > 100 µM | OVCAR-5 > 100 µM | OVCAR-8 > 100 µM | U-251 > 100 µM | HL-60 39 µM | MOLT-4 88.9 µM | SW-620 77.8 µM | HOP-62 > 100 µM | SF-295 82.8 µM | HT-29 > 100 µM | NCI-H23 > 100 µM | SF-268 > 100 µM

Cn1cc2ccccc2c1-c1nc(N)nc(F)n1
inactive: Malme-3M 56.1 µM | A549 > 100 µM | SNB-19 > 100 µM | OVCAR-5 > 100 µM | OVCAR-8 > 100 µM | A498 15.6 µM | U-251 > 100 µM | HL-60 > 100 µM | MOLT-4 > 100 µM | SW-620 78.3 µM | HOP-62 > 100 µM | SF-295 50.9 µM | HT-29 > 100 µM | NCI-H23 > 100 µM | HOP-92 > 100 µM | SF-268 > 100 µM

CS(=O)(=O)OCCN(CCOS(C)(=O)=O)c1ccc(/C=N/N=c2/nc[nH]c3nc[nH]c23)cc1
inactive: Malme-3M 27 µM | A549 26.2 µM | SNB-19 27.6 µM | OVCAR-5 20.6 µM | OVCAR-8 20.7 µM | A498 25.7 µM | U-251 16.3 µM | HL-60 6.04 µM | MOLT-4 4.84 µM | SW-620 16 µM | HOP-62 28.2 µM | SF-295 14.9 µM | HT-29 17.8 µM | NCI-H23 14.8 µM | HOP-92 16.9 µM | SF-268 12.9 µM

CCOC(=O)C(NC(=O)c1ccc(/N=N/N(C)C)cc1)C(C)C (stereo not given)
inactive: Malme-3M > 100 µM | A549 > 100 µM | SNB-19 > 100 µM | OVCAR-5 > 100 µM | OVCAR-8 > 100 µM | A498 > 100 µM | U-251 31 µM | HL-60 > 100 µM | MOLT-4 > 100 µM | SW-620 > 100 µM | HOP-62 > 100 µM | SF-295 > 100 µM | HT-29 > 100 µM | NCI-H23 > 100 µM | SF-268 > 100 µM

C/N=C(/NC)N(C)c1nc(=[N+](C)C)ss1.[O-][Cl+3]([O-])([O-])[O-]
inactive: A549 > 100 µM | SNB-19 > 100 µM | OVCAR-5 > 100 µM | OVCAR-8 > 100 µM | A498 39.4 µM | U-251 > 100 µM | HL-60 46 µM | MOLT-4 39.3 µM | SW-620 > 100 µM | HOP-62 > 100 µM | SF-295 > 100 µM | HT-29 > 100 µM | NCI-H23 74.1 µM | HOP-92 75 µM | SF-268 > 100 µM

CCOc1ccc(NC(=O)C(=O)C(C(=O)c2ccc3ccccc3c2)C2OC(=O)c3ccccc32)cc1 (stereo not given)
inactive: Malme-3M 10.9 µM | A549 20.2 µM | SNB-19 9.62 µM | OVCAR-5 30.9 µM | OVCAR-8 17.6 µM | A498 15.1 µM | U-251 5.04 µM | MOLT-4 4.57 µM | SW-620 15.6 µM | HOP-62 17.5 µM | HT-29 34.4 µM | NCI-H23 11.7 µM | HOP-92 19.5 µM | SF-268 13.3 µM

O=S1(=O)OCCOS(=O)(=O)C1(I)I
inactive: Malme-3M 20.4 µM | A549 26.2 µM | SNB-19 26.5 µM | OVCAR-8 20.7 µM | A498 16.7 µM | HL-60 21.1 µM | MOLT-4 15.9 µM | SW-620 16.8 µM | HOP-62 19.6 µM | SF-295 26.3 µM | HT-29 24.8 µM | NCI-H23 11.1 µM | HOP-92 13.7 µM | SF-268 20.4 µM

CCOC(=O)c1cc(OC(=O)CC)c2c(OC)ccc(OC)c2c1
inactive: Malme-3M > 100 µM | A549 > 100 µM | SNB-19 89.3 µM | OVCAR-5 46.1 µM | U-251 53.6 µM | MOLT-4 43.7 µM | SW-620 66.5 µM | HT-29 > 10 µM | NCI-H23 74 µM

CNC(=O)NCCCCC(NC(=O)OCc1ccccc1)C(=O)OCc1ccccc1 (stereo not given)
inactive: Malme-3M 14.4 µM | A549 31.6 µM | SNB-19 > 100 µM | OVCAR-5 46 µM | OVCAR-8 29.4 µM | A498 > 100 µM | U-251 23.9 µM | HL-60 16.8 µM | MOLT-4 20.8 µM | SW-620 > 100 µM | HOP-62 8.81 µM | SF-295 20.6 µM | HT-29 71.4 µM | NCI-H23 29.3 µM | HOP-92 36 µM

CN1CCN(C)C1c1cccc(C2N(C)CCN2C)c1
inactive: SNB-19 > 100 µM | OVCAR-5 > 100 µM | A498 > 100 µM | U-251 > 100 µM | HL-60 > 100 µM | MOLT-4 > 100 µM | HOP-62 > 100 µM | SF-295 > 100 µM | HT-29 > 100 µM | NCI-H23 > 100 µM | HOP-92 > 100 µM | SF-268 > 100 µM

CC/C(=N/O)C(C)C(=O)CCC(=O)Nc1ccc(Cl)cc1 (stereo not given)
inactive: Malme-3M > 100 µM | A549 > 100 µM | SNB-19 > 100 µM | OVCAR-5 > 100 µM | OVCAR-8 > 100 µM | A498 > 100 µM | U-251 > 100 µM | HL-60 > 100 µM | MOLT-4 > 100 µM | SW-620 > 100 µM | SF-295 > 100 µM | HT-29 > 100 µM | NCI-H23 > 100 µM | SF-268 > 100 µM

CCCCCCCCCCCCCP(=O)(O)NCC(N)=O
inactive: Malme-3M > 100 µM | A549 > 100 µM | SNB-19 45.6 µM | OVCAR-5 > 100 µM | OVCAR-8 71.3 µM | A498 > 100 µM | U-251 33.5 µM | HL-60 19.7 µM | SW-620 99.8 µM | HOP-62 37.8 µM | SF-295 52 µM | HT-29 > 100 µM | NCI-H23 > 100 µM | HOP-92 25.4 µM | SF-268 48.4 µM

COc1cccc2c1[C@]1(O)C(O)CCCC21 (stereo not given in full)
inactive: Malme-3M > 100 µM | A549 > 100 µM | SNB-19 > 100 µM | OVCAR-5 > 100 µM | OVCAR-8 > 100 µM | A498 > 100 µM | U-251 > 100 µM | MOLT-4 > 100 µM | SW-620 > 100 µM | HOP-62 > 100 µM | SF-295 > 100 µM | HT-29 > 100 µM | NCI-H23 > 100 µM | SF-268 > 100 µM
